Key:
Format in all cases: cell-based
[1] = test system: Zymoseptoria tritici (Septoria tritici); assay: Fungicidal activity against Zymoseptoria tritici (Septoria tritici) (leaf blotch), liquid culture in PDB, 96-well microtiter plate
Experimental: (§1) Fungicidal activity against Zymoseptoria tritici (Septoria tritici) (leaf blotch) Conidia of the fungus from cryogenic storage were directly mixed into nutrient broth (PDB potato dextrose broth). A DMSO solution of the test compounds was placed into a microtiter plate (96-well format) and the nutrient broth containing the fungal spores was added to it. The test plates were incubated at 24° C. and after 72 hours the fungal growth was assessed visually and compared to the growth in untreated wells. The scores were recorded as % control compared to the untreated wells. The action to be expected E for a given active ingredient combination was calculated using the COLBY formula as follows: • ppm=milligrams of active ingredient (=a.i.) per liter of spray mixture • X=% action by active ingredient (A) using p ppm of active ingredient • Y=% action by active ingredients (B+C) using q ppm of active ingredient. According to COLBY, the expected (additive) action of active ingredients (A)+(B+C) using p+q ppm of active ingredient is: [formula]

[2] = test system: Glomerella lagenarium (Colletotrichum lagenarium); assay: Fungicidal activity against Glomerella lagenarium (Colletotrichum lagenarium) liquid culture/cucumber/preventative (Anthracnose)
Experimental: as §1, with “Glomerella lagenarium (Colletotrichum lagenarium) liquid culture/cucumber/preventative (Anthracnose)” for “Zymoseptoria tritici (Septoria tritici) (leaf blotch)”

[3] = test system: Mycosphaerella arachidis Syn. Cercospora arachidicola; assay: Fungicidal activity against Mycosphaerella arachidis syn. Cercospora arachidicola (brown leaf spot), liquid culture in PDB, 96-well microtiter plate
Experimental: as §1, with “Activity Against Mycosphaerella arachidis Syn. Cercospora arachidicola (Brown Leaf Spot)” for “activity against Zymoseptoria tritici (Septoria tritici) (leaf blotch)”, “5 days” for “72 hours”

CO/C=C(\Oc1cc(C2CCCCC2)ccc1C)C(=O)OC [Compound X.04, methyl (Z)-2-(5-cyclohexyl-2-methyl-phenoxy)-3-methoxy-prop-2-enoate]
% control Score ([1]; X.04 0.02 ppm): 0%
% control Score ([1]; X.04 0.02 ppm alone): 0%
% control Score ([1]; X.04 0.02 ppm, Table B2): 0%
% control Score ([1]; X.04 0.07 ppm): 0%
% control Score ([1]; X.04 0.07 ppm alone): 0%
% control Score ([1]; X.04 0.07 ppm, Table B2): 0%
% control Score ([1]; X.04 0.2 ppm): 0%
% control Score ([1]; X.04 0.2 ppm alone): 0%
% control Score ([1]; X.04 0.2 ppm, Table B2): 0%
Zymoseptoria tritici % control Score ([1]; ppm: X.04 0.02): 0%
Zymoseptoria tritici % control Score ([1]; ppm: X.04 0.07): 0%
Zymoseptoria tritici % control Score ([1]; ppm: X.04 0.2): 0%
% control Score ([2]; X.04 0.02 ppm): 0%
% control Score ([2]; X.04 0.02 ppm alone): 0%
% control Score ([2]; X.04 0.02 ppm, Table B2): 0%
% control Score ([2]; X.04 0.07 ppm): 70%
% control Score ([2]; X.04 0.07 ppm alone): 70%
% control Score ([2]; X.04 0.07 ppm, Table B2): 70%
% control Score ([2]; X.04 0.2 ppm): 100%
% control Score ([2]; X.04 0.2 ppm alone): 100%
% control Score ([2]; X.04 0.2 ppm, Table B2): 100%
Colletotrichum lagenarium % control Score ([2]; ppm: X.04 0.02): 0%
Colletotrichum lagenarium % control Score ([2]; ppm: X.04 0.07): 70%
Colletotrichum lagenarium % control Score ([2]; ppm: X.04 0.2): 100%
% control Score ([3]; X.04 0.02 ppm): 70%
% control Score ([3]; X.04 0.02 ppm alone): 70%
% control Score ([3]; X.04 0.02 ppm, Table B2): 70%
% control Score ([3]; X.04 0.07 ppm): 70%
% control Score ([3]; X.04 0.07 ppm alone): 90%
% control Score ([3]; X.04 0.07 ppm, Table B2): 90%
% control Score ([3]; X.04 0.2 ppm): 70%
% control Score ([3]; X.04 0.2 ppm alone): 90%
% control Score ([3]; X.04 0.2 ppm, Table B2): 90%
Mycosphaerella arachidis % control Score ([3]; ppm: X.04 0.02): 70%
Mycosphaerella arachidis % control Score ([3]; ppm: X.04 0.07): 90%
Mycosphaerella arachidis % control Score ([3]; ppm: X.04 0.2): 90%

From US20260101893A1, “FUNGICIDAL COMPOSITIONS” (SYNGENTA CROP PROTECTION AG, priority 2022, published 2026)
